The test system of assay [1] is HEL. The assay can be described thus: Cytotoxic concentration required to inhibit HEL cell growth by 50 %. Conditions: Homo sapiens. It is filed as functional.
Assay [2] concerns HEL. The assay can be described thus: Minimum cytotoxic concentration required to alter microscopically detectable HEL cell morphology. It is filed as functional. To be noted: Homo sapiens.
Assay [3] has as its system Human alphaherpesvirus 3. The assay can be described thus: Effective concentration required for reduction of plaque formation of thymidine kinase deficient Varicella-Zoster Virus (YSR strain). In kind it is functional, organism-based.
Assay [4] concerns Human alphaherpesvirus 3. The assay can be described thus: Effective concentration required for reduction of plaque formation of Varicella-Zoster Virus, (YS strain). In kind it is functional, organism-based.
Assay [5] deals with Human alphaherpesvirus 3. Nature of the assay: Effective concentration required for reduction of plaque formation of Varicella-Zoster Virus (OKA strain). It is filed as functional, organism-based.
Assay [6] deals with Human alphaherpesvirus 3. The assay can be described thus: Effective concentration required for reduction of plaque formation of thymidine kinase deficient Varicella-Zoster Virus (071 strain). In kind it is functional, organism-based.

From ChEMBL document CHEMBL1134172, “Bicyclic nucleoside inhibitors of Varicella-Zoster Virus (VZV): the effect of terminal unsaturation in the side chain” (Bioorg Med Chem Lett, 2001) come the findings set out here.

Each structure is given as a SMILES string. Bounds are passed on as bounds.

The CC50 is the concentration that lowers cell viability or growth by half. Broadly, the EC50 is the concentration needed to bring the measured effect to its halfway point. A higher EC50 goes with a need for much substance.

`CCCCCCCCCCc1cc2cn([C@H]3C[C@H](O)[C@@H](CO)O3)c(=O)nc2o1`: in the assay on HEL [1], the CC50 is more than 50 µM.

For `CCCCCCCCc1cc2cn([C@H]3C[C@H](O)[C@@H](CO)O3)c(=O)nc2o1`, the CC50 with HEL [1] is more than 50 µM.

`CCCCCCc1cc2cn([C@H]3C[C@H](O)[C@@H](CO)O3)c(=O)nc2o1` had a CC50 in the assay on HEL [1] of more than 200 µM. In addition, the MCC in the assay on HEL [2] is more than 50 µM.

On to `CCCCCCCc1cc2cn([C@H]3C[C@H](O)[C@@H](CO)O3)c(=O)nc2o1`, for which the CC50 in the assay with HEL [1] was more than 50 µM.

For the compound `C#CCCCCCCc1cc2cn([C@H]3C[C@H](O)[C@@H](CO)O3)c(=O)nc2o1`, the 50% effective concentration (EC50) in the assay with Human alphaherpesvirus 3 [3] is more than 200 µM; in the assay on Human alphaherpesvirus 3 [4] it was 4 µM; in the assay on Human alphaherpesvirus 3 [5] it was 5 µM; with Human alphaherpesvirus 3 [6], more than 200 µM. The same compound came in with a CC50 in the assay with HEL [1] of more than 200 µM. This compound came in with an MCC in the assay with HEL [2] of more than 200 µM.

`C#CCCCCCc1cc2cn([C@H]3C[C@H](O)[C@@H](CO)O3)c(=O)nc2o1`: the EC50 with Human alphaherpesvirus 3 [3] is more than 200 µM; in the assay on Human alphaherpesvirus 3 [4] it was 37 µM; in the assay on Human alphaherpesvirus 3 [5], 79 µM; in the assay on Human alphaherpesvirus 3 [6], more than 200 µM. The compound also gave a half-maximal cytotoxic concentration (CC50) in the assay with HEL [1] of more than 200 µM. For the same compound, the MCC with HEL [2] was more than 200 µM.

As to `C=CCCCCc1cc2cn([C@H]3C[C@H](O)[C@@H](CO)O3)c(=O)nc2o1`, the EC50 with Human alphaherpesvirus 3 [3] is more than 200 µM; in the assay with Human alphaherpesvirus 3 [4] it was 13 µM; with Human alphaherpesvirus 3 [5], 14 µM; in the assay on Human alphaherpesvirus 3 [6], more than 200 µM. The compound also showed a CC50 with HEL [1] of more than 200 µM. The compound further displayed an MCC in the assay with HEL [2] of more than 200 µM.

On to `C=CCCCCCCc1cc2cn([C@H]3C[C@H](O)[C@@H](CO)O3)c(=O)nc2o1`, for which the EC50 in the assay with Human alphaherpesvirus 3 [3] is more than 50 µM; in the assay on Human alphaherpesvirus 3 [4] it was 0.06 µM; in the assay with Human alphaherpesvirus 3 [5] it was 0.27 µM; in the assay with Human alphaherpesvirus 3 [6], more than 200 µM. The same compound had a 50% cytotoxic concentration (CC50) in the assay on HEL [1] of more than 200 µM. In the assay on HEL [2], this compound came in with an MCC of more than 200 µM.

On to `C=CCCCc1cc2cn([C@H]3C[C@H](O)[C@@H](CO)O3)c(=O)nc2o1`, for which the EC50 in the assay on Human alphaherpesvirus 3 [3], in the assay on Human alphaherpesvirus 3 [4], with Human alphaherpesvirus 3 [5] and in the assay with Human alphaherpesvirus 3 [6] was more than 200 µM throughout. Besides, the CC50 with HEL [1] was more than 200 µM. In the assay with HEL [2], this compound yielded an MCC of more than 200 µM.

In the assay on HEL [1], `CCCCCc1cc2cn([C@H]3C[C@H](O)[C@@H](CO)O3)c(=O)nc2o1` registered a half-maximal cytotoxic concentration (CC50) of more than 50 µM.

Consider `C=CCCCCCCCCc1cc2cn([C@H]3C[C@H](O)[C@@H](CO)O3)c(=O)nc2o1`, for which the concentration for a half-maximal effect (EC50) is more than 200 µM with Human alphaherpesvirus 3 [3], 0.1 µM with Human alphaherpesvirus 3 [4], 0.09 µM in the assay on Human alphaherpesvirus 3 [5] and more than 200 µM with Human alphaherpesvirus 3 [6]. For the same compound, in the assay with HEL [1], the CC50 was more than 200 µM. The MCC in the assay with HEL [2] was more than 50 µM.

For `C#CCCCc1cc2cn([C@H]3C[C@H](O)[C@@H](CO)O3)c(=O)nc2o1`, the concentration giving a half-maximal response (EC50) was more than 200 µM with Human alphaherpesvirus 3 [3], 10 µM with Human alphaherpesvirus 3 [4], 8 µM in the assay on Human alphaherpesvirus 3 [5] and more than 200 µM with Human alphaherpesvirus 3 [6]. This compound returned a CC50 with HEL [1] of more than 200 µM. In addition, the MCC in the assay on HEL [2] is more than 200 µM.

Regarding `C#CCCCCc1cc2cn([C@H]3C[C@H](O)[C@@H](CO)O3)c(=O)nc2o1`, the EC50 in the assay with Human alphaherpesvirus 3 [3] is more than 200 µM; with Human alphaherpesvirus 3 [4], 33 µM; in the assay with Human alphaherpesvirus 3 [5] it was 25 µM; with Human alphaherpesvirus 3 [6], more than 200 µM. The CC50 in the assay with HEL [1] was more than 200 µM. The MCC with HEL [2] is more than 200 µM.

`Nc1nc2c(ncn2COCCO)c(=O)[nH]1` [ACYCLOVIR] had a CC50 in the assay on HEL [1] of more than 200 µM. In the assay on Human alphaherpesvirus 3 [6], this compound displayed an EC50 of more than 4 µM.
